Columns and labels:
Type in all cases: in vivo
[1] = test system: foxtail, giant (Setaria faberii); test: Test A postemergence, giant foxtail; conditions: 0 to 100 scale
Outline: (§1)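 Using a solvent/surfactant formulation, test chemicals were sprayed onto freshly seeded soil or onto 2–10 cm seedlings at the one- to two-leaf stage. Visual injury ratings on a 0–100 scale were made about 10 d later in the greenhouse.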

[2] = test system: ryegrass, Italian (Lolium multiflorum); test: Test A postemergence, Italian ryegrass; conditions: 0 to 100 scale
Outline: as §1

[3] = test system: barnyardgrass (Echinochloa crus-galli); test: Test A preemergence, barnyardgrass; conditions: 0 to 100 scale; for Barnyardgrass plant response rating: 0 is no effect, 100 is complete control
Outline: as §1

[4] = test system: foxtail, giant (Setaria faberii); test: Test A preemergence, giant foxtail; conditions: 0 to 100 scale; for Foxtail, Giant plant response rating: 0 is no effect, 100 is complete control
Outline: as §1

[5] = test system: ryegrass, Italian (Lolium multiflorum); test: Test A preemergence, Italian ryegrass; conditions: 0 to 100 scale; for Ryegrass, Italian plant response rating: 0 is no effect, 100 is complete control
Outline: as §1

[6] = test system: corn (Zea mays); test: Test A postemergence, corn; conditions: 0 to 100 scale
Outline: as §1

[7] = test system: ragweed (common ragweed, Ambrosia elatior); test: Test A postemergence, ragweed; conditions: 0 to 100 scale
Outline: as §1

[8] = test system: ducksalad (Heteranthera limosa); test: Test B flooded paddy test, ducksalad; conditions: Flood, 250 g ai/ha, applied to paddy water, 2-leaf stage, visual evaluation after 13 to 15 d
Outline: (§2)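 Rating: 0 = no effect, 100 = complete control, visual, relative to untreated plants. Conditions: 2-leaf stage, 3 cm flood kept constant, compound put directly into water, 13–15 d greenhouse.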

[9] = test system: rice (Oryza sativa); test: Test B flooded paddy test, rice; conditions: Flood, 250 g ai/ha, applied to paddy water, 2-leaf stage, visual evaluation after 13 to 15 d
Outline: as §2

[10] = test system: barnyardgrass (Echinochloa crus-galli); test: Test A postemergence, barnyardgrass; conditions: 0 to 100 scale
Outline: as §1

[11] = test system: blackgrass (Alopecurus myosuroides); test: Test A postemergence, blackgrass; conditions: 0 to 100 scale
Outline: as §1

[12] = test system: ragweed (common ragweed, Ambrosia elatior); test: Test A preemergence, ragweed; conditions: 0 to 100 scale; for Ragweed plant response rating: 0 is no effect, 100 is complete control
Outline: as §1

[13] = test system: wheat (Triticum aestivum); test: Test A postemergence, wheat; conditions: 0 to 100 scale
Outline: as §1

[14] = test system: pigweed (Amaranthus retroflexus); test: Test A preemergence, pigweed; conditions: 0 to 100 scale; for Pigweed plant response rating: 0 is no effect, 100 is complete control
Outline: as §1

[15] = test system: galium (catchweed bedstraw, Galium aparine); test: Test A postemergence, galium; conditions: 0 to 100 scale
Outline: as §1

[16] = test system: pigweed (Amaranthus retroflexus); test: Test A postemergence, pigweed; conditions: 0 to 100 scale
Outline: as §1

[17] = test system: barnyardgrass (Echinochloa crus-galli); test: Test B flooded paddy test, barnyardgrass; conditions: Flood, 250 g ai/ha, applied to paddy water, 2-leaf stage, visual evaluation after 13 to 15 d
Outline: as §2

[18] = test system: sedge, umbrella (small-flower umbrella sedge, Cyperus difformis); test: Test B flooded paddy test, umbrella sedge; conditions: Flood, 250 g ai/ha, applied to paddy water, 2-leaf stage, visual evaluation after 13 to 15 d
Outline: as §2

[19] = test system: kochia (Kochia scoparia); test: Test A postemergence, kochia; conditions: 0 to 100 scale
Outline: as §1

[20] = test system: kochia (Kochia scoparia); test: Test A preemergence, kochia; conditions: 0 to 100 scale; for Kochia plant response rating: 0 is no effect, 100 is complete control
Outline: as §1

[21] = 125 g ai/ha, 0 no effect, 100 complete control
[22] = 500 g ai/ha, 0 is no effect, 100 is complete control

Cc1cc(F)cc(OCC(C)Nc2ncc(C(F)(F)F)c(N)n2)c1 (centres unmarked) [Compound 39]
Plant response rating, Foxtail, Giant ([1]; 125 g ai/ha): 0 | Plant response rating, Foxtail, Giant ([1]; 500 g ai/ha): 10 | Plant response rating, Ryegrass, Italian ([2]; 125 g ai/ha): 0 | Plant response rating, Ryegrass, Italian ([2]; 500 g ai/ha): 50 | Barnyardgrass plant response rating ([3]; 125 g ai/ha): 40 | Plant response rating, Barnyardgrass ([3]; 500 g ai/ha): 90 | Plant response rating, Foxtail, Giant ([4]; 500 g ai/ha): 90 | Ryegrass, Italian plant response rating ([5]; 125 g ai/ha): 0 | Plant response rating, Ryegrass, Italian ([5]; 500 g ai/ha): 10 | Plant response rating, Corn ([6]; 125 g ai/ha): 10 | Plant response rating, Corn ([6]; 500 g ai/ha): 20 | Plant response rating, Ragweed ([7]; 125 g ai/ha): 0 | Plant response rating, Ragweed ([7]; 500 g ai/ha): 40 | Plant response rating, Ducksalad (0 to 100 scale, 0 is no effect, 100 is complete control) [8]: 0 | Plant response rating, Rice (0 to 100 scale, 0 is no effect, 100 is complete control) [9]: 0 | Plant response rating, Barnyardgrass ([10]; 125 g ai/ha): 0 | Plant response rating, Barnyardgrass ([10]; 500 g ai/ha): 0 | Plant response rating, Blackgrass ([11]; 125 g ai/ha): 0 | Plant response rating, Blackgrass ([11]; 500 g ai/ha): 0 | Ragweed plant response rating ([12]; 125 g ai/ha): 70 | Plant response rating, Ragweed ([12]; 500 g ai/ha): 100 | Plant response rating, Wheat ([13]; 125 g ai/ha): 0 | Plant response rating, Wheat ([13]; 500 g ai/ha): 0 | Pigweed plant response rating ([14]; 125 g ai/ha): 70 | Plant response rating, Pigweed ([14]; 500 g ai/ha): 80 | Plant response rating, Galium ([15]; 125 g ai/ha): 70 | Plant response rating, Galium ([15]; 500 g ai/ha): 70 | Plant response rating, Pigweed ([16]; 125 g ai/ha): 20 | Plant response rating, Pigweed ([16]; 500 g ai/ha): 60 | Plant response rating, Barnyardgrass (0 to 100 scale, 0 is no effect, 100 is complete control) [17]: 0 | Plant response rating, Sedge, Umbrella (0 to 100 scale, 0 is no effect, 100 is complete control) [18]: 0 | Plant response rating, Kochia ([19]; 125 g ai/ha): 40 | Plant response rating, Kochia ([19]; 500 g ai/ha): 70 | Kochia plant response rating ([20]; 125 g ai/ha): 0 | Plant response rating, Kochia ([20]; 500 g ai/ha): 80

CC(Nc1ncc(C(F)(F)F)c(N)n1)c1csc2ccccc12 (centres unmarked) [Compound 40]
Plant response rating, Foxtail, Giant ([1]; 125 g ai/ha): 0 | Plant response rating, Foxtail, Giant ([1]; 500 g ai/ha): 20 | Plant response rating, Ryegrass, Italian ([2]; 125 g ai/ha): 30 | Plant response rating, Ryegrass, Italian ([2]; 500 g ai/ha): 0 | Barnyardgrass plant response rating ([3]; 125 g ai/ha): 30 | Plant response rating, Barnyardgrass ([3]; 500 g ai/ha): 80 | Foxtail, Giant plant response rating ([4]; 125 g ai/ha): 10 | Plant response rating, Foxtail, Giant ([4]; 500 g ai/ha): 90 | Ryegrass, Italian plant response rating ([5]; 125 g ai/ha): 20 | Plant response rating, Ryegrass, Italian ([5]; 500 g ai/ha): 100 | Plant response rating, Corn ([6]; 125 g ai/ha): 0 | Plant response rating, Corn ([6]; 500 g ai/ha): 10 | Plant response rating, Ragweed ([7]; 125 g ai/ha): 30 | Plant response rating, Ragweed ([7]; 500 g ai/ha): 60 | Plant response rating, Ducksalad (0 to 100 scale, 0 is no effect, 100 is complete control) [8]: 20 | Plant response rating, Rice (0 to 100 scale, 0 is no effect, 100 is complete control) [9]: 0 | Plant response rating, Barnyardgrass ([10]; 125 g ai/ha): 0 | Plant response rating, Barnyardgrass ([10]; 500 g ai/ha): 60 | Plant response rating, Blackgrass ([11]; 125 g ai/ha): 0 | Plant response rating, Blackgrass ([11]; 500 g ai/ha): 10 | Ragweed plant response rating ([12]; 125 g ai/ha): 90 | Plant response rating, Ragweed ([12]; 500 g ai/ha): 100 | Plant response rating, Wheat ([13]; 125 g ai/ha): 0 | Plant response rating, Wheat ([13]; 500 g ai/ha): 0 | Pigweed plant response rating ([14]; 125 g ai/ha): 100 | Plant response rating, Pigweed ([14]; 500 g ai/ha): 100 | Plant response rating, Galium ([15]; 125 g ai/ha): 60 | Plant response rating, Galium ([15]; 500 g ai/ha): 90 | Plant response rating, Pigweed ([16]; 125 g ai/ha): 80 | Plant response rating, Pigweed ([16]; 500 g ai/ha): 100 | Plant response rating, Barnyardgrass (0 to 100 scale, 0 is no effect, 100 is complete control) [17]: 20 | Plant response rating, Sedge, Umbrella (0 to 100 scale, 0 is no effect, 100 is complete control) [18]: 40 | Plant response rating, Kochia ([19]; 125 g ai/ha): 50 | Plant response rating, Kochia ([19]; 500 g ai/ha): 90 | Kochia plant response rating ([20]; 125 g ai/ha): 60 | Plant response rating, Kochia ([20]; 500 g ai/ha): 60

C[C@@H](Nc1ncc(C(F)(F)F)c(N)n1)c1csc2ccccc12 [Compound 41]
Plant response rating, Foxtail, Giant [1, 21]: 50 | Foxtail, Giant plant response rating [1, 22]: 100 | Plant response rating, Ryegrass, Italian [2, 21]: 20 | Ryegrass, Italian plant response rating [2, 22]: 70 | Barnyardgrass plant response rating ([3]; 125 g ai/ha): 40 | Barnyardgrass plant response rating ([3]; 500 g ai/ha): 90 | Foxtail, Giant plant response rating ([4]; 125 g ai/ha): 30 | Foxtail, Giant plant response rating ([4]; 500 g ai/ha): 90 | Ryegrass, Italian plant response rating ([5]; 125 g ai/ha): 20 | Ryegrass, Italian plant response rating ([5]; 500 g ai/ha): 80 | Plant response rating, Corn [6, 21]: 10 | Corn plant response rating [6, 22]: 20 | Plant response rating, Ragweed [7, 21]: 60 | Ragweed plant response rating [7, 22]: 90 | Plant response rating, Ducksalad (0 to 100 scale, 0 is no effect, 100 is complete control) [8]: 35 | Plant response rating, Rice (0 to 100 scale, 0 is no effect, 100 is complete control) [9]: 0 | Plant response rating, Barnyardgrass [10, 21]: 0 | Barnyardgrass plant response rating [10, 22]: 50 | Plant response rating, Blackgrass [11, 21]: 0 | Blackgrass plant response rating [11, 22]: 0 | Ragweed plant response rating ([12]; 125 g ai/ha): 90 | Ragweed plant response rating ([12]; 500 g ai/ha): 100 | Plant response rating, Wheat [13, 21]: 0 | Wheat plant response rating [13, 22]: 0 | Pigweed plant response rating ([14]; 125 g ai/ha): 80 | Pigweed plant response rating ([14]; 500 g ai/ha): 100 | Plant response rating, Galium [15, 21]: 50 | Galium plant response rating [15, 22]: 70 | Plant response rating, Pigweed [16, 21]: 90 | Pigweed plant response rating [16, 22]: 100 | Plant response rating, Barnyardgrass (0 to 100 scale, 0 is no effect, 100 is complete control) [17]: 15 | Plant response rating, Sedge, Umbrella (0 to 100 scale, 0 is no effect, 100 is complete control) [18]: 65 | Plant response rating, Kochia [19, 21]: 70 | Kochia plant response rating [19, 22]: 90 | Kochia plant response rating ([20]; 125 g ai/ha): 70 | Kochia plant response rating ([20]; 500 g ai/ha): 90

Source: patent US20220119354A1, “DIAMINO-SUBSTITUTED PYRIDINES AND PYRIMIDINES AS HERBICIDES” (FMC Corporation, priority 2019, published 2022)
